Tests used:
[1] = tested on: Hepatitis C virus; experiment: Antiviral activity against HCV Con1 GT1b at 100 uM by replicon assay; type: functional, Hepacivirus hominis
[2] = tested on: Hepatitis C virus; experiment: Antiviral activity against HCV Con1 GT1b by replicon assay; type: functional, organism-based, Hepacivirus hominis

| Structure (SMILES) | EC50 ([2]; Hepatitis C virus, Con1 GT1b) | other results |
| --- | --- | --- |
| CC(C)(C)OC(=O)[C@H](Cc1ccccc1)NP(=O)(OC[C@@]1(N=[N+]=[N-])O[C@@H](n2ccc(N)nc2=O)[C@H](O)[C@@H]1O)Oc1ccccc1 (stereo partly drawn) | – | inhibition at 100 µM [1]: 84%; IC50 ([2]; Hepatitis C virus, Con1 GT1b): 6.7 µM |
| C[C@H](NP(=O)(OC[C@@]1(N=[N+]=[N-])O[C@@H](n2ccc(N)nc2=O)[C@H](O)[C@@H]1O)Oc1cccc2ccccc12)C(=O)OCc1ccccc1 (stereo partly drawn) | – | EC50 [2]: 0.95 µM |
| CC(C)(NP(=O)(OC[C@@]1(N=[N+]=[N-])O[C@@H](n2ccc(N)nc2=O)[C@H](O)[C@@H]1O)Oc1ccccc1)C(=O)OCc1ccccc1 (stereo partly drawn) | 9.2 µM | – |
| [N-]=[N+]=N[C@]1(COP(=O)(NCC(=O)OCc2ccccc2)Oc2ccccc2)O[C@@H](n2ccc(N)nc2=O)[C@H](O)[C@@H]1O (stereo partly drawn) | 2.1 µM | – |
| Cc1ccccc1OP(=O)(N[C@@H](C)C(=O)OCc1ccccc1)OC[C@@]1(N=[N+]=[N-])O[C@@H](n2ccc(N)nc2=O)[C@H](O)[C@@H]1O (stereo partly drawn) | 1.3 µM | – |
| C[C@@H](NP(=O)(OC[C@@]1(N=[N+]=[N-])O[C@@H](n2ccc(N)nc2=O)[C@H](O)[C@@H]1O)Oc1ccccc1)C(=O)OCc1ccccc1 (stereo partly drawn) | 2.2 µM | – |
| CC(C)C[C@H](NP(=O)(OC[C@@]1(N=[N+]=[N-])O[C@@H](n2ccc(N)nc2=O)[C@H](O)[C@@H]1O)Oc1ccccc1)C(=O)OC(C)C (stereo partly drawn) | > 100 µM | – |
| C[C@H](NP(=O)(OC[C@@]1(N=[N+]=[N-])O[C@@H](n2ccc(N)nc2=O)[C@H](O)[C@@H]1O)Oc1ccccc1)C(=O)Oc1ccccc1 (stereo partly drawn) | 2.9 µM | – |
| COc1ccccc1OP(=O)(N[C@@H](C)C(=O)OCc1ccccc1)OC[C@@]1(N=[N+]=[N-])O[C@@H](n2ccc(N)nc2=O)[C@H](O)[C@@H]1O (stereo partly drawn) | 2.3 µM | – |
| CCOC(=O)CN(C)P(=O)(OC[C@@]1(N=[N+]=[N-])O[C@@H](n2ccc(N)nc2=O)[C@H](O)[C@@H]1O)Oc1ccccc1 (stereo partly drawn) | – | inhibition at 100 µM [1]: 72%; IC50 ([2]; Hepatitis C virus, Con1 GT1b): 48 µM |
| CCOC(=O)[C@H](C)NP(=O)(OC[C@@]1(N=[N+]=[N-])O[C@@H](n2ccc(N)nc2=O)[C@H](O)[C@@H]1O)Oc1ccc(C)cc1 (stereo partly drawn) | 2.9 µM | – |
| CCOC(=O)[C@@H](NP(=O)(OC[C@@]1(N=[N+]=[N-])O[C@@H](n2ccc(N)nc2=O)[C@H](O)[C@@H]1O)Oc1ccccc1)[C@@H](C)CC (stereo partly drawn) | > 100 µM | – |
| CCOC(=O)[C@H](C)NP(=O)(OC[C@@]1(N=[N+]=[N-])O[C@@H](n2ccc(N)nc2=O)[C@H](O)[C@@H]1O)Oc1ccccc1 (stereo partly drawn) | 0.38 µM | – |
| CCOC(=O)[C@H](Cc1ccccc1)NP(=O)(OC[C@@]1(N=[N+]=[N-])O[C@@H](n2ccc(N)nc2=O)[C@H](O)[C@@H]1O)Oc1ccccc1 (stereo partly drawn) | 11 µM | – |
| CCOC(=O)[C@H](CC(C)C)NP(=O)(OC[C@@]1(N=[N+]=[N-])O[C@@H](n2ccc(N)nc2=O)[C@H](O)[C@@H]1O)Oc1ccc(C)cc1 (stereo partly drawn) | 4.3 µM | – |
| CCOC(=O)CC[C@H](NP(=O)(OC[C@@]1(N=[N+]=[N-])O[C@@H](n2ccc(N)nc2=O)[C@H](O)[C@@H]1O)Oc1ccccc1)C(=O)OCC (stereo partly drawn) | – | inhibition at 100 µM [1]: 74%; IC50 ([2]; Hepatitis C virus, Con1 GT1b): 44 µM |
| C[C@H](NP(=O)(OC[C@@]1(N=[N+]=[N-])O[C@@H](n2ccc(N)nc2=O)[C@H](O)[C@@H]1O)Oc1cccc(Cl)c1)C(=O)OCc1ccccc1 (stereo partly drawn) | 3.7 µM | – |
| COc1ccc(OP(=O)(N[C@@H](C)C(=O)OCc2ccccc2)OC[C@@]2(N=[N+]=[N-])O[C@@H](n3ccc(N)nc3=O)[C@H](O)[C@@H]2O)cc1 (stereo partly drawn) | > 100 µM | – |
| C[C@H](NP(=O)(OC[C@@]1(N=[N+]=[N-])O[C@@H](n2ccc(N)nc2=O)[C@H](O)[C@@H]1O)Oc1ccc(Cl)c(Cl)c1)C(=O)OCc1ccccc1 (stereo partly drawn) | 9.2 µM | – |
| CCOC(=O)[C@H](C)NP(=O)(OC[C@@]1(N=[N+]=[N-])O[C@@H](n2ccc(N)nc2=O)[C@H](O)[C@@H]1O)Oc1c(OC)cccc1OC (stereo partly drawn) | 4.1 µM | – |
| C[C@H](NP(=O)(OC[C@@]1(N=[N+]=[N-])O[C@@H](n2ccc(N)nc2=O)[C@H](O)[C@@H]1O)Oc1ccc(Cl)cc1)C(=O)OCc1ccccc1 (stereo partly drawn) | 6.2 µM | – |
| [N-]=[N+]=N[C@]1(COP(=O)(N[C@@H](Cc2ccccc2)C(=O)OCc2ccccc2)Oc2ccccc2)O[C@@H](n2ccc(N)nc2=O)[C@H](O)[C@@H]1O (stereo partly drawn) | – | inhibition at 100 µM [1]: 89%; IC50 ([2]; Hepatitis C virus, Con1 GT1b): 7.7 µM |
| CC(C)OC(=O)C(C)(C)NP(=O)(OC[C@@]1(N=[N+]=[N-])O[C@@H](n2ccc(N)nc2=O)[C@H](O)[C@@H]1O)Oc1ccccc1 (stereo partly drawn) | 3.1 µM | – |
| CC(C)OC(=O)[C@H](Cc1ccccc1)NP(=O)(OC[C@@]1(N=[N+]=[N-])O[C@@H](n2ccc(N)nc2=O)[C@H](O)[C@@H]1O)Oc1ccccc1 (stereo partly drawn) | 2.9 µM | – |
| COc1cccc(OP(=O)(N[C@@H](C)C(=O)OCc2ccccc2)OC[C@@]2(N=[N+]=[N-])O[C@@H](n3ccc(N)nc3=O)[C@H](O)[C@@H]2O)c1 (stereo partly drawn) | 8.8 µM | – |
| CCOC(=O)[C@H](CC(C)C)NP(=O)(OC[C@@]1(N=[N+]=[N-])O[C@@H](n2ccc(N)nc2=O)[C@H](O)[C@@H]1O)Oc1ccc(Cl)cc1 (stereo partly drawn) | 2.5 µM | – |
| CCCCOC(=O)[C@H](C)NP(=O)(OC[C@@]1(N=[N+]=[N-])O[C@@H](n2ccc(N)nc2=O)[C@H](O)[C@@H]1O)Oc1ccccc1 (stereo partly drawn) | 11 µM | – |
| CC(C)C[C@@H](NP(=O)(OC[C@@]1(N=[N+]=[N-])O[C@@H](n2ccc(N)nc2=O)[C@H](O)[C@@H]1O)Oc1ccccc1)C(=O)OCc1ccccc1 (stereo partly drawn) | – | inhibition at 100 µM [1]: 88%; IC50 ([2]; Hepatitis C virus, Con1 GT1b): 4.2 µM |

| Structure (SMILES) | EC50 ([2]; Hepatitis C virus, Con1 GT1b) | other results |
| --- | --- | --- |
| C[C@H](NP(=O)(OC[C@@]1(N=[N+]=[N-])O[C@@H](n2ccc(N)nc2=O)[C@H](O)[C@@H]1O)Oc1ccccc1Cl)C(=O)OCc1ccccc1 (stereo partly drawn) | 3.5 µM | – |
| COC(=O)[C@H](C)NP(=O)(OC[C@@]1(N=[N+]=[N-])O[C@@H](n2ccc(N)nc2=O)[C@H](O)[C@@H]1O)Oc1ccccc1 (stereo partly drawn) | 3.1 µM | – |
| C[C@H](NP(=O)(OC[C@@]1(N=[N+]=[N-])O[C@@H](n2ccc(N)nc2=O)[C@H](O)[C@@H]1O)Oc1ccccc1)C(=O)OCc1ccccc1 (stereo partly drawn) | 6 µM | – |
| CCOC(=O)C[C@H](NP(=O)(OC[C@@]1(N=[N+]=[N-])O[C@@H](n2ccc(N)nc2=O)[C@H](O)[C@@H]1O)Oc1ccccc1)C(=O)OCC (stereo partly drawn) | – | inhibition at 100 µM [1]: 88%; IC50 ([2]; Hepatitis C virus, Con1 GT1b): 4.4 µM |
| CCOC(=O)[C@H](CC(C)C)NP(=O)(OC[C@@]1(N=[N+]=[N-])O[C@@H](n2ccc(N)nc2=O)[C@H](O)[C@@H]1O)Oc1ccc(Cl)c(Cl)c1 (stereo partly drawn) | 2.3 µM | – |
| CCOC(=O)[C@H](CC(C)C)NP(=O)(OC[C@@]1(N=[N+]=[N-])O[C@@H](n2ccc(N)nc2=O)[C@H](O)[C@@H]1O)Oc1ccccc1 (stereo partly drawn) | 11 µM | – |
| CCOC(=O)C1(NP(=O)(OC[C@@]2(N=[N+]=[N-])O[C@@H](n3ccc(N)nc3=O)[C@H](O)[C@@H]2O)Oc2ccccc2)CCCC1 (stereo partly drawn) | – | inhibition at 100 µM [1]: 69%; IC50 ([2]; Hepatitis C virus, Con1 GT1b): 56 µM |
| CCCCOC(=O)[C@@H](C)NP(=O)(OC[C@@]1(N=[N+]=[N-])O[C@@H](n2ccc(N)nc2=O)[C@H](O)[C@@H]1O)Oc1ccccc1 (stereo partly drawn) | 0.94 µM | – |
| C[C@H](NP(=O)(OC[C@@]1(N=[N+]=[N-])O[C@@H](n2ccc(N)nc2=O)[C@H](O)[C@@H]1O)Oc1ccccc1)C(=O)OC(C)(C)C (stereo partly drawn) | 0.72 µM | – |
| CCC(C)OC(=O)[C@H](C)NP(=O)(OC[C@@]1(N=[N+]=[N-])O[C@@H](n2ccc(N)nc2=O)[C@H](O)[C@@H]1O)Oc1ccccc1 (stereo partly drawn) | 0.62 µM | – |
| CCOC(=O)[C@@H]1CCCN1P(=O)(OC[C@@]1(N=[N+]=[N-])O[C@@H](n2ccc(N)nc2=O)[C@H](O)[C@@H]1O)Oc1ccccc1 (stereo partly drawn) | > 100 µM | – |
| CCOC(=O)CCNP(=O)(OC[C@@]1(N=[N+]=[N-])O[C@@H](n2ccc(N)nc2=O)[C@H](O)[C@@H]1O)Oc1ccccc1 (stereo partly drawn) | – | inhibition at 100 µM [1]: 77%; IC50 ([2]; Hepatitis C virus, Con1 GT1b): 47 µM |
| Cc1ccc(OP(=O)(N[C@@H](C)C(=O)OCc2ccccc2)OC[C@@]2(N=[N+]=[N-])O[C@@H](n3ccc(N)nc3=O)[C@H](O)[C@@H]2O)cc1 (stereo partly drawn) | 0.51 µM | – |
| CC(C)OC(=O)CNP(=O)(OC[C@@]1(N=[N+]=[N-])O[C@@H](n2ccc(N)nc2=O)[C@H](O)[C@@H]1O)Oc1ccccc1 (stereo partly drawn) | – | EC50 [2]: 4.5 µM |
| CCCCCCCCCCCCOC(=O)[C@@H](C)NP(=O)(OC[C@@]1(N=[N+]=[N-])O[C@@H](n2ccc(N)nc2=O)[C@H](O)[C@@H]1O)Oc1ccccc1 (stereo partly drawn) | 30 µM | – |
| C[C@H](NP(=O)(OC[C@@]1(N=[N+]=[N-])O[C@@H](n2ccc(N)nc2=O)[C@H](O)[C@@H]1O)Oc1ccc(Br)cc1)C(=O)OCc1ccccc1 (stereo partly drawn) | 6.5 µM | – |
| CCOC(=O)[C@H](CC(C)C)NP(=O)(OC[C@@]1(N=[N+]=[N-])O[C@@H](n2ccc(N)nc2=O)[C@H](O)[C@@H]1O)Oc1ccc(OC)cc1 (stereo partly drawn) | 9.3 µM | – |
| CC(C)[C@H](NP(=O)(OC[C@@]1(N=[N+]=[N-])O[C@@H](n2ccc(N)nc2=O)[C@H](O)[C@@H]1O)Oc1ccccc1)C(=O)OCc1ccccc1 (stereo partly drawn) | 5.6 µM | – |
| CCOC(=O)[C@H](CCSC)NP(=O)(OC[C@@]1(N=[N+]=[N-])O[C@@H](n2ccc(N)nc2=O)[C@H](O)[C@@H]1O)Oc1ccccc1 (stereo partly drawn) | 18 µM | – |
| CCOC(=O)[C@@H](C)NP(=O)(OC[C@@]1(N=[N+]=[N-])O[C@@H](n2ccc(N)nc2=O)[C@H](O)[C@@H]1O)Oc1ccccc1 (stereo partly drawn) | 2.3 µM | – |
| CC(C)OC(=O)[C@H](C)NP(=O)(OC[C@@]1(N=[N+]=[N-])O[C@@H](n2ccc(N)nc2=O)[C@H](O)[C@@H]1O)Oc1ccccc1 (stereo partly drawn) | 0.99 µM | – |
| C[C@@H](NP(=O)(OC[C@@]1(N=[N+]=[N-])O[C@@H](n2ccc(N)nc2=O)[C@H](O)[C@@H]1O)Oc1ccccc1)C(=O)OC(C)(C)C (stereo partly drawn) | > 100 µM | – |
| CC(C)OC(=O)CNP(=O)(OC[C@@]1(N=[N+]=[N-])O[C@@H](n2ccc(N)nc2=O)[C@H](O)[C@@H]1O)Oc1ccccc1 (single isomer, unassigned; Diastereomer 1) | – | EC50 [2]: 15 µM |
| C[C@H](NP(=O)(OC[C@@]1(N=[N+]=[N-])O[C@@H](n2ccc(N)nc2=O)[C@H](O)[C@@H]1O)Oc1ccc2ccccc2c1)C(=O)OCc1ccccc1 (single isomer, unassigned; diastereomer 1) | – | EC50 [2]: 4.3 µM |
| C[C@H](NP(=O)(OC[C@@]1(N=[N+]=[N-])O[C@@H](n2ccc(N)nc2=O)[C@H](O)[C@@H]1O)Oc1cccc2ccccc12)C(=O)OCc1ccccc1 (single isomer, unassigned; diastereomer 2) | 1.2 µM | – |
| C[C@H](NP(=O)(OC[C@@]1(N=[N+]=[N-])O[C@@H](n2ccc(N)nc2=O)[C@H](O)[C@@H]1O)Oc1ccc2ccccc2c1)C(=O)OCc1ccccc1 (single isomer, unassigned; diastereomer 2) | 2.9 µM | – |
| [N-]=[N+]=N[C@]1(CO)O[C@@H](n2ccc(N)nc2=O)[C@H](O)[C@@H]1O [4'-AZIDOCYTIDINE] | 1.28 µM | – |

From ChEMBL document CHEMBL1152361, “The application of phosphoramidate ProTide technology to the potent anti-HCV compound 4'-azidocytidine (R1479)” (Bioorg Med Chem Lett, 2009)
